# In ChEMBL document CHEMBL1139605, “Novel ketal ligands for the glucocorticoid receptor: in vitro and in vivo activity” (Bioorg Med Chem Lett, 2005):
# Legend:
# Glucocorticoid receptor [1] = target: T1, Glucocorticoid receptor (Homo sapiens, UniProt P04150); assay: Inhibition of human glucocorticoid receptor alpha isoform
# T1 sequence (P04150 whole entry): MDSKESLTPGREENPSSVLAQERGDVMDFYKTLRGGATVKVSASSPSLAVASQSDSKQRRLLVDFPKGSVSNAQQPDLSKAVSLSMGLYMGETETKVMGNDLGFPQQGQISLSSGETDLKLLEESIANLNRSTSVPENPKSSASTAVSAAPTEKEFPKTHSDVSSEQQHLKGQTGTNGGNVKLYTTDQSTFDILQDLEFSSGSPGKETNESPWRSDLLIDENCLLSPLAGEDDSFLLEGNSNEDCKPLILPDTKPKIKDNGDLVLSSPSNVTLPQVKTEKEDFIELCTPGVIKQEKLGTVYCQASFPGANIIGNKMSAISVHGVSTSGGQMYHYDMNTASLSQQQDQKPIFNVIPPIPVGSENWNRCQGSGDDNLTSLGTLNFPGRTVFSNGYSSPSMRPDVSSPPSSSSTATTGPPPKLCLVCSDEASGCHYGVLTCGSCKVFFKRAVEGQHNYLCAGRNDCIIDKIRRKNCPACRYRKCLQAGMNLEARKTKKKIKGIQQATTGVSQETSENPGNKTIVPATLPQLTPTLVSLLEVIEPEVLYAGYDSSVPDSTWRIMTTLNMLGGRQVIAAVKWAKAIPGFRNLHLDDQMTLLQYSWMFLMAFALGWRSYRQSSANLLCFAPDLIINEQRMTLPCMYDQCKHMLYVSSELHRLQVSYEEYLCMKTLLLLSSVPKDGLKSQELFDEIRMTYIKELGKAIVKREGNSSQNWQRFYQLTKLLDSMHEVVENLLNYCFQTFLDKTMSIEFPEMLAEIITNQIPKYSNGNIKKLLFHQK
# [2] = Effective concentration required for induction of glutamine synthetase in human skeletal muscle cells using 58% radiolabeled Dexamethasone; assay type: functional
# Mus musculus [3] = organism: Mus musculus; assay: Effective concentration required for inhibition of interleukin-6 in mouse thioglycolate-elicited peritoneal exudate cell line using 66% radiolabeled Dexamethasone; assay type: functional
# Estrogen receptor = target: T2, Estrogen receptor (Homo sapiens, UniProt P03372); assay: Binding affinity for human estrogen receptor alpha
# T2 sequence (P03372 whole entry): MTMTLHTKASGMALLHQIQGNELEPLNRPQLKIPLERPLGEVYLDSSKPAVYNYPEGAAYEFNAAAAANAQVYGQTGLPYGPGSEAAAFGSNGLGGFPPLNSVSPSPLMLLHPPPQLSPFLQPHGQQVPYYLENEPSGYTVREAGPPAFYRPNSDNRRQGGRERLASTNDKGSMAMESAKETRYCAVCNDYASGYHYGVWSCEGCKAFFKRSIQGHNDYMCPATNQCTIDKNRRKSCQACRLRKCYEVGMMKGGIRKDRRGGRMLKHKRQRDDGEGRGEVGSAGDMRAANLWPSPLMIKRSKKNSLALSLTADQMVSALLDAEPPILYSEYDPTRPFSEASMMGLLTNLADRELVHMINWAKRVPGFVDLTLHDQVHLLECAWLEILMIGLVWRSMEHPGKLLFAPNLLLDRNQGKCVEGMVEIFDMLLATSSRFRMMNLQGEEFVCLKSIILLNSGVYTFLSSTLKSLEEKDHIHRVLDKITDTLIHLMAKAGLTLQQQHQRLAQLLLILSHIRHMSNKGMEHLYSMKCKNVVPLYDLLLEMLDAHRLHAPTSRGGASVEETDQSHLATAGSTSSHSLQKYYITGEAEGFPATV
# Glucocorticoid receptor [4] = target: T1, Glucocorticoid receptor; assay: Binding affinity for human glucocorticoid receptor
# Estrogen receptor beta = Estrogen receptor beta (Homo sapiens, UniProt Q92731); assay: Binding affinity for human estrogen receptor beta
# Estrogen receptor beta, sequence (Q92731 whole entry): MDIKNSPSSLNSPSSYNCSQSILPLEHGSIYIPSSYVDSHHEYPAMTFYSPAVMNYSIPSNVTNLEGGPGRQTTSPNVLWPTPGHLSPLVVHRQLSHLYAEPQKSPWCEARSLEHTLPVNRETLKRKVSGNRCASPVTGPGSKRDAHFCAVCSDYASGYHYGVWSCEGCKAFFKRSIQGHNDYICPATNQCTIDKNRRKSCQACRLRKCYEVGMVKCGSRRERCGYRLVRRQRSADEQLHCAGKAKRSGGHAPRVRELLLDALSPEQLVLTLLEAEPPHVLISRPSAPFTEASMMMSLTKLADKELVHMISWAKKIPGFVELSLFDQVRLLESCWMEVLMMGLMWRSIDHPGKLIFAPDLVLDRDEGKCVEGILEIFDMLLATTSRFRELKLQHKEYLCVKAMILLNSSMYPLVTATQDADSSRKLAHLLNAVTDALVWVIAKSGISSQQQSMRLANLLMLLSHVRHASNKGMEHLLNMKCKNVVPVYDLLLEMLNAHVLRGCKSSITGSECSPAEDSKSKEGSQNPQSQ
# [5] = target: T3, Mineralocorticoid receptor (Rattus norvegicus, UniProt P22199); assay: Binding affinity for rat mineralocorticoid receptor
# T3 sequence (P22199 whole entry): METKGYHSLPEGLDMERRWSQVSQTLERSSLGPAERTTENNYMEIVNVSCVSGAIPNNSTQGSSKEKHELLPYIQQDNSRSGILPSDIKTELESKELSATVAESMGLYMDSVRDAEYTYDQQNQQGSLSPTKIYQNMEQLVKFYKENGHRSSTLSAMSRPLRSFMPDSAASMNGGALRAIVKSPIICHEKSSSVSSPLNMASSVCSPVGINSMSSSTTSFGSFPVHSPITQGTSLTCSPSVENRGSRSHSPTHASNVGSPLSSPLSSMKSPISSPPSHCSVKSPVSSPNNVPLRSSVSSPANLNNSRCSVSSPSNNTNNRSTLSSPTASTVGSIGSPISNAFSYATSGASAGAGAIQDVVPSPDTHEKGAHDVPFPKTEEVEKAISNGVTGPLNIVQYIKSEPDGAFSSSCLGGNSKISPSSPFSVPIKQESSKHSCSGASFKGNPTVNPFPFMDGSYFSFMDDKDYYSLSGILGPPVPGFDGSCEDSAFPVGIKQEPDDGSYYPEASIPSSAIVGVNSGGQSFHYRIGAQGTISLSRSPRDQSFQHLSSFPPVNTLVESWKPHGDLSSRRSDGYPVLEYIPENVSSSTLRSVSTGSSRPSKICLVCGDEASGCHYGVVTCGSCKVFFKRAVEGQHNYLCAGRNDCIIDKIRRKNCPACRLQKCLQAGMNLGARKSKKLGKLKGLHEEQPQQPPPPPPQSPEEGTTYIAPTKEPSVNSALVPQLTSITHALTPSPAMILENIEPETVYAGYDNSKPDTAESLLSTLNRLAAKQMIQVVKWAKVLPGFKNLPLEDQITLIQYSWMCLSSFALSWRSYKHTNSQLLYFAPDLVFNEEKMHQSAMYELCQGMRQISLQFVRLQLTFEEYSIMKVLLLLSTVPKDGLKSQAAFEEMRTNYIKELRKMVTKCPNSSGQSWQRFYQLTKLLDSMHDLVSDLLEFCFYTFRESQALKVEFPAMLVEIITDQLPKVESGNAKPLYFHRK
# Progesterone receptor = target: T4, Progesterone receptor (Homo sapiens, UniProt P06401); assay: Binding affinity for human progesterone receptor
# T4 sequence (P06401 whole entry): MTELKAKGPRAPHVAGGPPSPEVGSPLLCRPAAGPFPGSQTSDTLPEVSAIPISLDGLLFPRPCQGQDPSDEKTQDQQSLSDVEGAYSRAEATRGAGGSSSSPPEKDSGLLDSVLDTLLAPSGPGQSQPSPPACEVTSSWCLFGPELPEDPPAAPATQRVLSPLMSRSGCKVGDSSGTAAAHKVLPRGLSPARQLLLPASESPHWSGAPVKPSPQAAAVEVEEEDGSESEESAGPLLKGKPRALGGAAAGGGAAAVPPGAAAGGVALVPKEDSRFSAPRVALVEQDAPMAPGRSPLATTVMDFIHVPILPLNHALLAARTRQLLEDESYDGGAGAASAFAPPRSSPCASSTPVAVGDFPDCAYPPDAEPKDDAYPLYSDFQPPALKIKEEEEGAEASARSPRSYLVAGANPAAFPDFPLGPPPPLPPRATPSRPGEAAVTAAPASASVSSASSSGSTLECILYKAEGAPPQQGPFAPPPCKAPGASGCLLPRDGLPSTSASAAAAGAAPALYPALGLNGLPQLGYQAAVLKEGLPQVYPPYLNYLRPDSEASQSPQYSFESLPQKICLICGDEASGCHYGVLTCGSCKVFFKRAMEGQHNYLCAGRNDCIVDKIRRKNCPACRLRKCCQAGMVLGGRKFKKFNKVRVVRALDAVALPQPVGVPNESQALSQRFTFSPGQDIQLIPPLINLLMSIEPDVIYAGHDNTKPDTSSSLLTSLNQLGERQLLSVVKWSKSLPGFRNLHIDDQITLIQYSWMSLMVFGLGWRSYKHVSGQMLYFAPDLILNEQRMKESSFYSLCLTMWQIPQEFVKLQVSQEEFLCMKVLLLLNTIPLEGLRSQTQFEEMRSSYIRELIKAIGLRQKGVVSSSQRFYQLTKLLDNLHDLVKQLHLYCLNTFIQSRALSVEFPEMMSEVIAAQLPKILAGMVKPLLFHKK
# Mus musculus [6] = organism: Mus musculus; assay: Effective concentration required for inhibition of interleukin-6 in mouse thioglycolate-elicited peritoneal exudate cell line using 79% radiolabeled Dexamethasone; assay type: functional
# A549 [7] = assay: Effective concentration for inhibition of interleukin-6 in human A549 lung carcinoma cell line using 67% radiolabeled Dexamethasone; assay type: functional, cell-based
# A549 [8] = assay: Effective concentration required for inhibition of interleukin-6 in human A549 lung carcinoma cell line using […]% radiolabeled Dexamethasone; assay type: functional, cell-based
# A549 [9] = assay: Effective concentration for inhibition of interleukin-6 in human A549 lung carcinoma cell line using 32% radiolabeled Dexamethasone; assay type: functional, cell-based
# A549 [10] = assay: Effective concentration for inhibition of interleukin-6 in human A549 lung carcinoma cell line using […]% radiolabeled Dexamethasone; assay type: functional, cell-based
# Mus musculus [11] = organism: Mus musculus; assay: Effective concentration required for inhibition of interleukin-6 in mouse thioglycolate-elicited peritoneal exudate cell line using 81% radiolabeled Dexamethasone; assay type: functional
# A549 [12] = assay: Effective concentration for inhibition of interleukin-6 in human A549 lung carcinoma cell line using 65% radiolabeled Dexamethasone; assay type: functional, cell-based
# Mus musculus [13] = organism: Mus musculus; assay: Effective concentration required for inhibition of interleukin-6 in mouse thioglycolate-elicited peritoneal exudate cell line using 95% radiolabeled Dexamethasone; assay type: functional
# A549 [14] = assay: Effective concentration required for inhibition of interleukin-6 in human A549 lung carcinoma cell line using 102% radiolabeled Dexamethasone; assay type: functional, cell-based
# HepG2 = assay: Effective concentration required for induction of tyrosine aminotransferase in human HepG2 cells using 81% radiolabeled Dexamethasone; assay type: functional, cell-based
# [15] = Effective concentration required for induction of glutamine synthetase in human skeletal muscle cells using 97% radiolabeled Dexamethasone; assay type: functional
# A549 [16] = assay: Effective concentration for inhibition of interleukin-6 in human A549 lung carcinoma cell line using 69% radiolabeled Dexamethasone; assay type: functional, cell-based
smiles,measurement,setting,value
C=C[C@@H]1CO[C@@]2(CCC3=Cc4c(cnn4-c4ccc(F)cc4)C[C@@]32C)O1,IC50,Glucocorticoid receptor [1],38 nM
CCC[C@H]1OC2(CCCC3=Cc4c(cnn4-c4ccc(F)cc4)C[C@@]32C)O[C@@H]1CCC,IC50,Glucocorticoid receptor [1],8.9 nM
same,EC50,[2],29 nM
C[C@]12Cc3cnn(-c4ccc(F)cc4)c3C=C1CCCC21O[C@H](c2ccccc2)[C@@H](c2ccccc2)O1,EC50,Mus musculus [3],26 nM
same,IC50,Glucocorticoid receptor [1],10 nM
C[C@H]1OC2(CCC3=Cc4c(cnn4-c4ccc(F)cc4)C[C@@]32C)O[C@@H]1C,IC50,Estrogen receptor,> 10000 nM
same,IC50,Glucocorticoid receptor [4],24 nM
same,IC50,Estrogen receptor beta,> 10000 nM
same,IC50,Glucocorticoid receptor [1],24 nM
same,IC50,[5],> 10000 nM
same,IC50,Progesterone receptor,> 1000 nM
C[C@]12Cc3cnn(-c4ccc(F)cc4)c3C=C1CC[C@@]21OC[C@H](c2ccccc2)O1,IC50,Glucocorticoid receptor [1],65 nM
C[C@@H]1C[C@@H](C)OC2(CCCC3=Cc4c(cnn4-c4ccc(F)cc4)C[C@@]32C)O1 (some centres undefined),IC50,Glucocorticoid receptor [1],8.3 nM
C[C@]12Cc3cnn(-c4ccc(F)cc4)c3C=C1CC[C@@]21OC[C@@H](c2ccccc2)O1,IC50,Glucocorticoid receptor [1],26 nM
C/C=C/[C@H]1OC2(CCCC3=Cc4c(cnn4-c4ccc(F)cc4)C[C@@]32C)O[C@@H]1/C=C/C,EC50,Mus musculus [6],37 nM
same,EC50,A549 [7],7.8 nM
same,IC50,Glucocorticoid receptor [1],2.5 nM
C[C@]12Cc3cnn(-c4ccc(F)cc4)c3C=C1CCCC21OCCO1,IC50,Estrogen receptor,> 10000 nM
same,IC50,Glucocorticoid receptor [4],14 nM
same,IC50,Estrogen receptor beta,> 10000 nM
same,IC50,Glucocorticoid receptor [1],14 nM
same,IC50,[5],7560 nM
same,IC50,Progesterone receptor,> 1000 nM
CCCC[C@H]1OC2(CCCC3=Cc4c(cnn4-c4ccc(F)cc4)C[C@@]32C)O[C@@H]1CCCC,IC50,Glucocorticoid receptor [1],22 nM
same,EC50,A549 [8],92 nM
CC[C@H]1OC2(CCCC3=Cc4c(cnn4-c4ccc(F)cc4)C[C@@]32C)O[C@@H]1CC,EC50,Mus musculus [6],78 nM
same,IC50,Glucocorticoid receptor [1],5.5 nM
same,EC50,A549 [9],19 nM
C=C[C@H]1CO[C@@]2(CCC3=Cc4c(cnn4-c4ccc(F)cc4)C[C@@]32C)O1,IC50,Glucocorticoid receptor [1],49 nM
CC1(C)COC2(CCC3=Cc4c(cnn4-c4ccc(F)cc4)C[C@@]32C)OC1,EC50,A549 [10],12 nM
same,IC50,Glucocorticoid receptor [1],28 nM
C[C@]12Cc3cnn(-c4ccc(F)cc4)c3C=C1CC[C@]21OC[C@H](c2ccccc2)O1,IC50,Glucocorticoid receptor [1],12 nM
C[C@H]1OC2(CCCC3=Cc4c(cnn4-c4ccc(F)cc4)C[C@@]32C)O[C@@H]1C,IC50,Glucocorticoid receptor [1],10 nM
C=C[C@H]1OC2(CCCC3=Cc4c(cnn4-c4ccc(F)cc4)C[C@@]32C)O[C@@H]1C=C,EC50,Mus musculus [11],8.7 nM
same,EC50,A549 [12],5.3 nM
same,IC50,Estrogen receptor,> 10000 nM
same,IC50,Glucocorticoid receptor [4],1.2 nM
same,IC50,Estrogen receptor beta,> 10000 nM
same,IC50,Glucocorticoid receptor [1],1.2 nM
same,IC50,[5],7400 nM
same,IC50,Progesterone receptor,> 1000 nM
C[C@]12Cc3cnn(-c4ccc(F)cc4)c3C=C1CCC21OCCO1 (stereo in doubt; 2),EC50,Mus musculus [13],5.7 nM
same,EC50,A549 [14],4.5 nM
same,IC50,Glucocorticoid receptor [1],13.8 nM
same,EC50,HepG2,211 nM
same,EC50,[15],32 nM
C[C@]12Cc3cnn(-c4ccc(F)cc4)c3C=C1CCC21OCCO1 (stereo in doubt; 13),EC50,A549 [16],28 nM
same,IC50,Estrogen receptor,> 10000 nM
same,IC50,Glucocorticoid receptor [4],73 nM
same,IC50,Estrogen receptor beta,> 10000 nM
same,IC50,Glucocorticoid receptor [1],73 nM
same,IC50,[5],> 10000 nM
same,IC50,Progesterone receptor,> 1000 nM
C[C@@H]1C[C@@H](C)OC2(CCC3=Cc4c(cnn4-c4ccc(F)cc4)C[C@@]32C)O1 (stereo in doubt; form 2),IC50,Glucocorticoid receptor [1],8.4 nM
